The values below come from patent publication US20240398781A1, “SPIROCYCLIC CYCLIC MODULATORS OF CHOLESTEROL BIOSYNTHESIS AND THEIR USE FOR PROMOTING REMYELINATION” (GENENTECH, INC., priority 2021, published 2024).

SMILES strings stand for the structures.

The target of test [1] is human EBP (Homo sapiens (Human), UniProt Q15125). In words: Competition binding assay (SPA, [3H]-Ifenprodil) to determine compound affinity to EBP. To be noted: [3H]-Ifenprodil 10 nM, HEK293 membrane overexpressing human EBP, Ki=IC50/(1+[L]/Kd); read-out: hEBP SPA Ki. Summed up:
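Membranes from HEK293 cells overexpressing human EBP, on SPA beads (0.3 mg beads, 5 µg membrane/well) in Tris/MgCl2/EDTA buffer pH 7.5 with 0.01% BSA and 0.1% DMSO, competed against [3H]-ifenprodil for 3 h to equilibrium. Compounds were tested at 1 µM single dose or 0.06 nM–5 µM; IC50 came from nonlinear fit, and Ki=IC50/(1+[L]/Kd).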

Test [2] relates to EBP (zymostenol accumulation in EpiSC-derived OPCs). In words: GC/MS-based sterol profiling, zymostenol accumulation in OPCs. It is filed as cell-based, mouse. To be noted: Mus musculus, 24 h, EpiSC-derived OPCs, 24 hr treatment, 8 doses from 0.15 nM to 333 nM; read-out: Zymostenol GCMS EC50. The essentials: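 EpiSC-derived OPCs (100,000/well) were treated 24 h in N2B27 without growth factors. Sterols were TMS-derivatized and analysed by GC/MS full-scan EI, quantified against cholesterol-d7. Zymostenol was normalized to the level after 24 h with 100 nM positive control reference.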

Chain of human EBP (Q15125 whole entry): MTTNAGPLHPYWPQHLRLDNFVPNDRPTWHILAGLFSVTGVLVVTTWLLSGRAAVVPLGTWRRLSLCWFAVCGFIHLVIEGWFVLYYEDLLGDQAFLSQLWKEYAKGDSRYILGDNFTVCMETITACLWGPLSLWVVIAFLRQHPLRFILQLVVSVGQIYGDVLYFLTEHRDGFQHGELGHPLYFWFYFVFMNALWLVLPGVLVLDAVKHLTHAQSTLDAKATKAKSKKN

For the compound `O=S1(=O)CC2(CCN([C@H]3CC[C@H](c4ccc(C(F)(F)F)cc4)CC3)C2)C1` [Compound 3A, 6-((1r,4r)-4-(4-(trifluoromethyl)phenyl)cyclohexyl)-2-thia-6-azaspiro[3.4]octane 2,2-dioxide], the Ki in test [1] turned out to be 20 nM. Also, the concentration giving a half-maximal response (EC50) in test [2] was found to be 2.1 nM.
For `O=S1(=O)CC2(CCN([C@H]3CC[C@@H](c4ccc(C(F)(F)F)cc4)CC3)C2)C1` [Compound 3B, 6-((1s,4s)-4-(4-(trifluoromethyl)phenyl)cyclohexyl)-2-thia-6-azaspiro[3.4]octane 2,2-dioxide] the same measures were 62 nM and 16 nM.
For `O=S1(=O)CC2(CCN(C3CCN(c4ccc(C(F)(F)F)cc4)CC3)C2)C1` [Compound 4, 6-(1-(4-(trifluoromethyl)phenyl)piperidin-4-yl)-2-thia-6-azaspiro[3.4]octane 2,2-dioxide] the same measures were 26 nM and 2.5 nM.
Taken in the same sequence, the figures for `O=S1(=O)CC2(CCN(C3CCN(c4ccc(C(F)(F)F)nc4)CC3)C2)C1` [Compound 5, 6-(1-(6-(trifluoromethyl)pyridin-3-yl)piperidin-4-yl)-2-thia-6-azaspiro[3.4]octane 2,2-dioxide] were 67 nM and 50 nM.
`O=S1(=O)CC2(CCN(C3CCN(c4ccc(C(F)(F)F)cn4)CC3)C2)C1` [Compound 6, 6-(1-(5-(trifluoromethyl)pyridin-2-yl)piperidin-4-yl)-2-thia-6-azaspiro[3.4]octane 2,2-dioxide]: the inhibitory constant (Ki) in test [1] amounted to 37 nM. Moreover, the EC50 in test [2] was determined as 14 nM.
Taken in the same sequence, the figures for `Cc1cc(C(F)(F)F)cnc1N1CCC(N2CCC3(C2)CS(=O)(=O)C3)CC1` [Compound 7, 6-(1-(3-methyl-5-(trifluoromethyl)pyridin-2-yl)piperidin-4-yl)-2-thia-6-azaspiro[3.4]octane 2,2-dioxide] were 10 nM and 34 nM.
Consider `CC(C)n1nc(C(F)(F)F)cc1[C@H]1CC[C@H](N2CCC3(C2)CS(=O)(=O)C3)CC1` [Compound 8A, 6-((1r,4r)-4-(1-isopropyl-3-(trifluoromethyl)-1H-pyrazol-5-yl)cyclohexyl)-2-thia-6-azaspiro[3.4]octane 2,2-dioxide], for which the inhibition constant Ki in test [1] is 16 nM. Besides, the EC50 in test [2] is 14 nM.
Taken in the same sequence, the figures for `CC(C)n1nc(C(F)(F)F)cc1[C@H]1CC[C@@H](N2CCC3(C2)CS(=O)(=O)C3)CC1` [Compound 8B, 6-((1s,4s)-4-(1-isopropyl-3-(trifluoromethyl)-1H-pyrazol-5-yl)cyclohexyl)-2-thia-6-azaspiro[3.4]octane 2,2-dioxide] were 21 nM and 26 nM.
As to `O=S1(=O)CC2(CCN([C@H]3CC[C@H](c4cc(C(F)(F)F)nn4C4CC4)CC3)C2)C1` [Compound 12A, 6-((1r,4r)-4-(1-Cyclopropyl-3-(trifluoromethyl)-1H-pyrazol-5-yl)cyclohexyl)-2-thia-6-azaspiro[3.4]octane 2,2-dioxide], the inhibitory constant (Ki) in test [1] came out at 28 nM. In addition, the EC50 in test [2] came to 11 nM.
For `O=S1(=O)CC2(CCN([C@H]3CC[C@@H](c4cc(C(F)(F)F)nn4C4CC4)CC3)C2)C1` [Compound 12B, 6-((1s,4s)-4-(1-Cyclopropyl-3-(trifluoromethyl)-1H-pyrazol-5-yl)cyclohexyl)-2-thia-6-azaspiro[3.4]octane 2,2-dioxide] the same measures were 29 nM and 23 nM.
Taken in the same sequence, the figures for `O=S1(=O)CC2(CCN([C@H]3CC[C@H](c4ccc(C(F)(F)F)nc4)CC3)C2)C1` [Compound 14A, 6-((1r,4r)-4-(6-(Trifluoromethyl)pyridin-3-yl)cyclohexyl)-2-thia-6-azaspiro[3.4]octane 2,2-dioxide] were 35 nM and 11 nM.
For `O=S1(=O)CC2(CCN([C@H]3CC[C@@H](c4ccc(C(F)(F)F)nc4)CC3)C2)C1` [Compound 14B, 6-((1s,4s)-4-(6-(Trifluoromethyl)pyridin-3-yl)cyclohexyl)-2-thia-6-azaspiro[3.4]octane 2,2-dioxide] the same measures were 30 nM and 43 nM.
For the compound `CCn1nc(C(F)(F)F)cc1[C@H]1CC[C@H](N2CCC3(C2)CS(=O)(=O)C3)CC1` [Compound 15, 6-((1r,4r)-4-(1-Ethyl-3-(trifluoromethyl)-1H-pyrazol-5-yl)cyclohexyl)-2-thia-6-azaspiro[3.4]octane 2,2-dioxide], in test [1], the inhibition constant (Ki) amounted to 25 nM. In addition, the EC50 in test [2] stood at 4 nM.
Taken in the same sequence, the figures for `CCn1nc([C@H]2CC[C@H](N3CCC4(C3)CS(=O)(=O)C4)CC2)cc1C(F)(F)F` [Compound 16, 6-((1r,4r)-4-(1-Ethyl-5-(trifluoromethyl)-1H-pyrazol-3-yl)cyclohexyl)-2-thia-6-azaspiro[3.4]octane 2,2-dioxide] were 36 nM and 12 nM.
Turning to `Cc1cc(C(F)(F)F)ncc1[C@H]1CC[C@@H](N2CCC3(C2)CS(=O)(=O)C3)CC1` [Compound 21A, 6-((1s,4s)-4-(4-Methyl-6-(trifluoromethyl)pyridin-3-yl)cyclohexyl)-2-thia-6-azaspiro[3.4]octane 2,2-dioxide], the Ki in test [1] was 23 nM. In test [2], the EC50 was 12 nM.
Taken in the same sequence, the figures for `Cc1cc(C(F)(F)F)ncc1[C@H]1CC[C@H](N2CCC3(C2)CS(=O)(=O)C3)CC1` [Compound 21B, 6-((1r,4r)-4-(4-Methyl-6-(trifluoromethyl)pyridin-3-yl)cyclohexyl)-2-thia-6-azaspiro[3.4]octane 2,2-dioxide] were 48 nM and 50 nM.
Taken in the same sequence, the figures for `O=S1(=O)CC2(CCN([C@H]3CC[C@@H](c4cc(C(F)(F)F)nn4C4CCC4)CC3)C2)C1` [Compound 23A, 6-((1s,4s)-4-(1-Cyclobutyl-3-(trifluoromethyl)-1H-pyrazol-5-yl)cyclohexyl)-2-thia-6-azaspiro[3.4]octane 2,2-dioxide] were 26 nM and 31 nM.
Taken in the same sequence, the figures for `O=S1(=O)CC2(CCN([C@H]3CC[C@H](c4cc(C(F)(F)F)nn4C4CCC4)CC3)C2)C1` [Compound 23B, 6-((1r,4r)-4-(1-Cyclobutyl-3-(trifluoromethyl)-1H-pyrazol-5-yl)cyclohexyl)-2-thia-6-azaspiro[3.4]octane 2,2-dioxide] were 21 nM and 9 nM.
In the case of `O=S1(=O)CC2(CCN([C@H]3CC[C@H](c4cc(C(F)(F)F)n(C5CCC5)n4)CC3)C2)C1` [Compound 24, 6-((1r,4r)-4-(1-cyclobutyl-5-(trifluoromethyl)-1H-pyrazol-3-yl)cyclohexyl)-2-thia-6-azaspiro[3.4]octane 2,2-dioxide], the Ki in test [1] turned out to be 28 nM. Further, the EC50 in test [2] stood at 3 nM.
Regarding `Cn1nc(C(F)(F)F)cc1[C@H]1CC[C@@H](N2CCC3(CC2)CS(=O)(=O)C3)CC1` [Compound 25A, 7-((1s,4s)-4-(1-Methyl-3-(trifluoromethyl)-1H-pyrazol-5-yl)cyclohexyl)-2-thia-7-azaspiro[3.5]nonane 2,2-dioxide], in test [1], the inhibitory constant (Ki) amounted to 110 nM. Further, the concentration giving a half-maximal response (EC50) in test [2] worked out at 43 nM.
Taken in the same sequence, the figures for `Cn1nc(C(F)(F)F)cc1[C@H]1CC[C@H](N2CCC3(CC2)CS(=O)(=O)C3)CC1` [Compound 25B, 7-((1r,4r)-4-(1-methyl-3-(trifluoromethyl)-1H-pyrazol-5-yl)cyclohexyl)-2-thia-7-azaspiro[3.5]nonane 2,2-dioxide] were 58 nM and 26 nM.
For `Cc1cc(C(F)(F)F)ncc1N1CCC(N2CCC3(C2)CS(=O)(=O)C3)CC1` [Compound 28, 6-(1-(4-Methyl-6-(trifluoromethyl)pyridin-3-yl)piperidin-4-yl)-2-thia-6-azaspiro[3.4]octane 2,2-dioxide], the inhibition constant (Ki) in test [1] came out at 33 nM. The EC50 in test [2] stood at 7.5 nM.
`Cc1nc(C(F)(F)F)ccc1N1CCC(N2CCC3(C2)CS(=O)(=O)C3)CC1` [Compound 29, 6-(1-(2-methyl-6-(trifluoromethyl)pyridin-3-yl)piperidin-4-yl)-2-thia-6-azaspiro[3.4]octane 2,2-dioxide]: the inhibitory constant (Ki) in test [1] worked out at 45 nM. In addition, the EC50 in test [2] was found to be 7.1 nM.
Regarding `O=S1(=O)CC2(CCN(C3CCN(c4ncc(C(F)(F)F)cc4Cl)CC3)C2)C1` [Compound 30, 6-(1-(3-chloro-5-(trifluoromethyl)pyridin-2-yl)piperidin-4-yl)-2-thia-6-azaspiro[3.4]octane 2,2-dioxide], the Ki in test [1] amounted to 39 nM. The half-maximal effective concentration (EC50) in test [2] worked out at 5 nM.
Taken in the same sequence, the figures for `Cc1cc(F)cnc1N1CCC(N2CCC3(C2)CS(=O)(=O)C3)CC1` [Compound 31, 6-(1-(5-fluoro-3-methylpyridin-2-yl)piperidin-4-yl)-2-thia-6-azaspiro[3.4]octane 2,2-dioxide] were 59 nM and 32 nM.
On to `O=S1(=O)CC2(CCN(C3CCN(c4ncc(C(F)(F)F)cc4F)CC3)C2)C1` [Compound 32, 6-(1-(3-fluoro-5-(trifluoromethyl)pyridin-2-yl)piperidin-4-yl)-2-thia-6-azaspiro[3.4]octane 2,2-dioxide], for which the Ki in test [1] was found to be 24 nM. The half-maximal effective concentration (EC50) in test [2] is 7 nM.
For `CC(C)n1nc(-c2cncc(OC(F)F)c2)cc1[C@H]1CC[C@H](N2CCC3(C2)CS(=O)(=O)C3)CC1` [Compound 33A, 6-((1r,4r)-4-(3-(5-(Difluoromethoxy)pyridin-3-yl)-1-isopropyl-1H-pyrazol-5-yl)cyclohexyl)-2-thia-6-azaspiro[3.4]octane 2,2-dioxide] the same measures were 37 nM and 7.6 nM.
